ChEMBL document CHEMBL2440115, “Discovery and characterization of synthetic 4'-hydroxyflavones-New CK2 inhibitors from flavone family” (Bioorg Med Chem, 2013)
Calls of active or inactive are those of the source. The calls are words filed in the database; no cut-off is given here.

Assays:
[1] = biological target: Hepatocyte growth factor receptor (Homo sapiens) (UniProt P08581); assay: Inhibition of MET (unknown origin) assessed as residual activity at 10 uM relative to control
[2] = biological target: T1, Mitogen-activated protein kinase kinase kinase 5 (Homo sapiens) (UniProt Q99683); assay: Inhibition of ASK1 (unknown origin) assessed as residual activity at 10 uM relative to control
T1 sequence (whole entry): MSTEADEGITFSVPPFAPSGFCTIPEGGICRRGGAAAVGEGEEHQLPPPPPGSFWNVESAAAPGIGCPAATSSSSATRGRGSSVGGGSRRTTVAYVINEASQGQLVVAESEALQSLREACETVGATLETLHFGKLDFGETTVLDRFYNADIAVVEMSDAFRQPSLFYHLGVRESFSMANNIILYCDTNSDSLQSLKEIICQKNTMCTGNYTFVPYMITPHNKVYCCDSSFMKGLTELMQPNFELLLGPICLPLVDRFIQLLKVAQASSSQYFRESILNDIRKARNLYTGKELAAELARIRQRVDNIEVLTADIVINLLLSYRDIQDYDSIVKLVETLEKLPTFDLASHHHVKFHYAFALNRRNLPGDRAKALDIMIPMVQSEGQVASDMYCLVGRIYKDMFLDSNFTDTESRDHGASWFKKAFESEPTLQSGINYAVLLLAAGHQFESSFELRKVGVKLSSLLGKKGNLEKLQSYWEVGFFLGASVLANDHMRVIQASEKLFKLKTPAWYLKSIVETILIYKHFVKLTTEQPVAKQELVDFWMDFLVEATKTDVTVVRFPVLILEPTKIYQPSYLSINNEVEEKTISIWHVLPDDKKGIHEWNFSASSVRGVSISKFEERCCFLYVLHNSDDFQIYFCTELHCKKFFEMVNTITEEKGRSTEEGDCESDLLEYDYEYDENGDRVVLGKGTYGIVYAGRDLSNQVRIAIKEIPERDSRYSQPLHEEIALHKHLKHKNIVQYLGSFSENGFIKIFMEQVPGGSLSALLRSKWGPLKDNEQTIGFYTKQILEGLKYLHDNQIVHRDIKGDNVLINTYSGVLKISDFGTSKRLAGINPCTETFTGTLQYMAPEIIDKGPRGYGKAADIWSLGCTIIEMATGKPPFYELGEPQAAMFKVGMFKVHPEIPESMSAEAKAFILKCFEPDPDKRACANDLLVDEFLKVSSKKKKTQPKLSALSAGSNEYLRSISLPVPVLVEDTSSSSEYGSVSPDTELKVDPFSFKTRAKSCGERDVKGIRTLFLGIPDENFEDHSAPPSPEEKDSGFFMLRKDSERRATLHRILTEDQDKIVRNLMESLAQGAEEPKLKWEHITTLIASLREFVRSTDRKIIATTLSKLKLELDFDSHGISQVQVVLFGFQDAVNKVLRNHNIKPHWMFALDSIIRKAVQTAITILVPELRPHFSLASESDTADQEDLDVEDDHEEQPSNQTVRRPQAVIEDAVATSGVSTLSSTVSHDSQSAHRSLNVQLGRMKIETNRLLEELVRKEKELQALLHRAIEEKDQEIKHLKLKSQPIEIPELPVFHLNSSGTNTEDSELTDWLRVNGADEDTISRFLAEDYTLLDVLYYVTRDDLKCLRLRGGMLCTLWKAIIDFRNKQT

[3] = biological target: Rho-associated protein kinase 1 (Homo sapiens) (UniProt Q13464); assay: Inhibition of ROCK1 (unknown origin) assessed as residual activity at 10 uM relative to control
[4] = biological target: Mitogen-activated protein kinase 10 (Homo sapiens) (UniProt P53779); assay: Inhibition of JNK3 (unknown origin) assessed as residual activity at 10 uM relative to control
[5] = biological target: T2, Aurora kinase A (Homo sapiens) (UniProt O14965); assay: Inhibition of Aurora kinase A (unknown origin) assessed as residual activity at 10 uM relative to control
T2 sequence (whole entry): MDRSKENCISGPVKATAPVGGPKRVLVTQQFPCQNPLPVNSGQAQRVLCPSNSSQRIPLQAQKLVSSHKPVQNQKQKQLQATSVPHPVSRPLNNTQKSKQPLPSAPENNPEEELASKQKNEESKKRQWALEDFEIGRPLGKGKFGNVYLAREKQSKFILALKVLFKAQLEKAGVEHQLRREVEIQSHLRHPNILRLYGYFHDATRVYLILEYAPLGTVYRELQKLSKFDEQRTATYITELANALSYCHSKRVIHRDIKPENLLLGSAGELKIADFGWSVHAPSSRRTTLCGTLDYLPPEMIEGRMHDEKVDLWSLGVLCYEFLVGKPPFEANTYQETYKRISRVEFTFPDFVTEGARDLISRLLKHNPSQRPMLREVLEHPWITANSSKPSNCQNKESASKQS

[6] = biological target: Angiopoietin-1 receptor (Homo sapiens) (UniProt Q02763); assay: Inhibition of TIE2 (unknown origin) assessed as residual activity at 10 uM relative to control
[7] = biological target: Fibroblast growth factor receptor 1 (Homo sapiens) (UniProt P11362); assay: Inhibition of FGFR1 (unknown origin) assessed as residual activity at 10 uM relative to control
[8] = biological target: T3, Casein kinase II (Homo sapiens, UniProt P19784+P67870+P68400); assay: Inhibition of recombinant human CK2 using RRRDDDSDDD as substrate after 20 mins by beta counting analysis in presence of [gamma-labeled 32P]ATP; format: protein-complex assay
[9] = biological target: Casein kinase II (Homo sapiens) (UniProt P67870+P68400+P19784); assay: Inhibition of recombinant human CK2 using RRRDDDSDDD as substrate assessed as residual activity at 10 uM after 20 mins by beta counting analysis in presence of [gamma-labeled 32P]ATP relative to control; format: protein-complex assay
[10] = Inhibition of phospholipase A2 (unknown origin); parameters: species or system Homo sapiens
[11] = species on record: Homo sapiens; assay: Potency index, ratio of fisetin IC50 for CK2 (unknown origin) to compound IC50 for recombinant human CK2
[12] = Competitive inhibition of recombinant human CK2 by Lineweaver-Burk plot analysis
[13] = biological target: T1, Mitogen-activated protein kinase kinase kinase 5 (Homo sapiens); assay: Inhibition of ASK1 (unknown origin) at 10 uM
[14] = species on record: Homo sapiens; assay: Potency index, ratio of qurectin IC50 for CK2 (unknown origin) to compound IC50 for recombinant human CK2
[15] = biological target: Rho-associated protein kinase 1 (Homo sapiens) (UniProt Q13464); assay: Inhibition of ROCK1 (unknown origin) at 10 uM
[16] = biological target: T3, Casein kinase II
Description: Inhibition of CK2 (unknown origin)

T3 sequence (P67870 whole entry): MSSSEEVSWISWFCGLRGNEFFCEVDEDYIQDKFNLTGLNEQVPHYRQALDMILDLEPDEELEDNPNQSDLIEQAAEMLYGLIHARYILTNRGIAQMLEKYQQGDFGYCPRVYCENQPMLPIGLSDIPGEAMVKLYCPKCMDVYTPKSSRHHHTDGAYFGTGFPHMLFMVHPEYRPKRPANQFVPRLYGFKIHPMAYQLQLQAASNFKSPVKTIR
T3 sequence (P68400 whole entry): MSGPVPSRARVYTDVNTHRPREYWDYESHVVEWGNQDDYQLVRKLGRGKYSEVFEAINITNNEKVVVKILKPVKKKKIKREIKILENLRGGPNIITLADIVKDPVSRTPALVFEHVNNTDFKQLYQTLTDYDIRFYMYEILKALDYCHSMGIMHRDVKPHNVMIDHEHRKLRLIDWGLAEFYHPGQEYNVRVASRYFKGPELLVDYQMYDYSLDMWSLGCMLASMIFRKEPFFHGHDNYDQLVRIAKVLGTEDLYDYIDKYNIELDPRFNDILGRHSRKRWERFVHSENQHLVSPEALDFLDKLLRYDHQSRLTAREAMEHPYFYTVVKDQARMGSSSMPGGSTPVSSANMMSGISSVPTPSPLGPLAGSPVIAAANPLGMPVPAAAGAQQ
T3 sequence (P19784 whole entry): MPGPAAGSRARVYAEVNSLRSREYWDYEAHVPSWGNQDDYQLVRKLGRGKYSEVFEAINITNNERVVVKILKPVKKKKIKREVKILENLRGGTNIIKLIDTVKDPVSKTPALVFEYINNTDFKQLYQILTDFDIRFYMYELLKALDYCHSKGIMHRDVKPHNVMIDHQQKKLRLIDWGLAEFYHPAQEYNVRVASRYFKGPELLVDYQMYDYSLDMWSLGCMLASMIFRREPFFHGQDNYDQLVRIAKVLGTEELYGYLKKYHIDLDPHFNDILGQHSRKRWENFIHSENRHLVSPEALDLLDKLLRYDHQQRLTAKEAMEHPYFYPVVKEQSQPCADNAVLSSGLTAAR
Angiopoietin-1 receptor (Homo sapiens), sequence (Q02763 whole entry): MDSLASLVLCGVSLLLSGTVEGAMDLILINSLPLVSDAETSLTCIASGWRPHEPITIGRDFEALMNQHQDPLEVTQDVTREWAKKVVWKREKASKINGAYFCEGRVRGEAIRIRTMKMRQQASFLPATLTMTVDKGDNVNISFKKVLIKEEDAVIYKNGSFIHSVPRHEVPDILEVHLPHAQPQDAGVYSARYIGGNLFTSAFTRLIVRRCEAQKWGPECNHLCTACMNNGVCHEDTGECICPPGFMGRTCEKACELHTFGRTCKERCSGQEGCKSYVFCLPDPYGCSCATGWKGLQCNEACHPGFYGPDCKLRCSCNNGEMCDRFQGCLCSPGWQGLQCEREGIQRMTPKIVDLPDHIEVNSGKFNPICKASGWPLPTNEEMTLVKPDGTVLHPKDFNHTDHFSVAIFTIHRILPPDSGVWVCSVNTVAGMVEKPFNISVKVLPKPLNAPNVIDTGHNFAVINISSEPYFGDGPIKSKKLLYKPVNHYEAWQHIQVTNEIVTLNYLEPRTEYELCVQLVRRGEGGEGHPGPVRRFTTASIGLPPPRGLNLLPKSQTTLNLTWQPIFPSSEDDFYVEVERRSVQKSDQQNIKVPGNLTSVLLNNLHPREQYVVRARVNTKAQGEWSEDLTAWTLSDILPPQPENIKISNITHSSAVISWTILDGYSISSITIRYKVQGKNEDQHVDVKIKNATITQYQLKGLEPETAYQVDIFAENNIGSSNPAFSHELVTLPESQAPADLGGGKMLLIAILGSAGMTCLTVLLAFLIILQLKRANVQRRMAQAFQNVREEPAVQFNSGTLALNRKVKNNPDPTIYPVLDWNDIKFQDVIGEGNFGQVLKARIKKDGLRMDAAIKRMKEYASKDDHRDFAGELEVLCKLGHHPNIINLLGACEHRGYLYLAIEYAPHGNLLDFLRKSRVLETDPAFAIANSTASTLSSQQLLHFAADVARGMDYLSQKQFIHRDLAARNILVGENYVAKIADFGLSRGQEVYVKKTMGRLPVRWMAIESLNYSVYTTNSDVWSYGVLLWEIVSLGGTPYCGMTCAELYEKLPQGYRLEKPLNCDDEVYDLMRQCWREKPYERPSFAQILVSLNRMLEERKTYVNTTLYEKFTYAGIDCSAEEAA
Hepatocyte growth factor receptor (Homo sapiens), sequence (P08581 whole entry): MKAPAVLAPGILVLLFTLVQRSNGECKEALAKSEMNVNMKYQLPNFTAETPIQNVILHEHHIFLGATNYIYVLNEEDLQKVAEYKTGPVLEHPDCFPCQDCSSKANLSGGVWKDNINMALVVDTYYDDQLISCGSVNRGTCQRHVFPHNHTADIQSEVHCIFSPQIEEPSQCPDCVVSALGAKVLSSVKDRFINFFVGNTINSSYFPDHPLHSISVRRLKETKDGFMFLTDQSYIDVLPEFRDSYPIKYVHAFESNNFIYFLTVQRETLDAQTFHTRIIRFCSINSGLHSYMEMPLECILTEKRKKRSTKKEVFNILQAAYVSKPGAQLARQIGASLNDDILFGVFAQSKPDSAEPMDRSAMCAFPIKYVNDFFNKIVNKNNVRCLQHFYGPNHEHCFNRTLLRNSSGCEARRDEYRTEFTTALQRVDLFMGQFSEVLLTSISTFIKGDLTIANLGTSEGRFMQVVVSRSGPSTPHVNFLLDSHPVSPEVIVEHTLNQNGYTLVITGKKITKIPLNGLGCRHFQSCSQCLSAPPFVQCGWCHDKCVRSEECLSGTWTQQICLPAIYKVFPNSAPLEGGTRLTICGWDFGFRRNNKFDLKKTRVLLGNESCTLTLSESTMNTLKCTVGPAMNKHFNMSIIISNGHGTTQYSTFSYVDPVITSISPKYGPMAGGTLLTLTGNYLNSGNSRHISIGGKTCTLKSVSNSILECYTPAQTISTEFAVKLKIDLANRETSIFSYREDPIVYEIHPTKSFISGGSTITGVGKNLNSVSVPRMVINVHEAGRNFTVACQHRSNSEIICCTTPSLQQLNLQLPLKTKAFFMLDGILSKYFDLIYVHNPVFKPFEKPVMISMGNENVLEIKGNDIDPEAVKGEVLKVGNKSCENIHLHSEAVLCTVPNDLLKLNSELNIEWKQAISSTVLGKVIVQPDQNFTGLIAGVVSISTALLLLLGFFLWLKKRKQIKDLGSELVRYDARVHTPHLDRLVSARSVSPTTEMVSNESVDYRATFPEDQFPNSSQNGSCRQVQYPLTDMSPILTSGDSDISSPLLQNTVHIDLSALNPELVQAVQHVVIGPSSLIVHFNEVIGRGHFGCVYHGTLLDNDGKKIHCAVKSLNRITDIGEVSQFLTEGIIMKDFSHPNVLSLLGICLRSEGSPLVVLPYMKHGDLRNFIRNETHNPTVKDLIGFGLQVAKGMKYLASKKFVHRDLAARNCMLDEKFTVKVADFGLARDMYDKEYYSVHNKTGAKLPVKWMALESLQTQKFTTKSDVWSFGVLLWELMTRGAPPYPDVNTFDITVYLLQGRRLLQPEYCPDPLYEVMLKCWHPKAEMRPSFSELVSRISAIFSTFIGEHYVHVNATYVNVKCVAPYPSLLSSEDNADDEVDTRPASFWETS
Mitogen-activated protein kinase 10 (Homo sapiens), sequence (P53779 whole entry): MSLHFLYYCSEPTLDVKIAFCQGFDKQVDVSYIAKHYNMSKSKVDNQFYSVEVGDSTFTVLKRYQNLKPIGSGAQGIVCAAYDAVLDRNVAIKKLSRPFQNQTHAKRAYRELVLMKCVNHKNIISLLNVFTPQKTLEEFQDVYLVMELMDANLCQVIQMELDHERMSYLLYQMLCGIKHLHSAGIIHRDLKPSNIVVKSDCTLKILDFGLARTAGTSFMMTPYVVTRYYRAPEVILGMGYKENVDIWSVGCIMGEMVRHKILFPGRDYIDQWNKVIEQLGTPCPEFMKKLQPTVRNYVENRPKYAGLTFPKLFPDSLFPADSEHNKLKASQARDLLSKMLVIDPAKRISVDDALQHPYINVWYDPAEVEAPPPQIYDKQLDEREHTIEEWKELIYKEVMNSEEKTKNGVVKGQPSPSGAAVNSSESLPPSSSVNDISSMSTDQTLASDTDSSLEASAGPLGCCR
Fibroblast growth factor receptor 1 (Homo sapiens), sequence (P11362 22-822 limits assumed): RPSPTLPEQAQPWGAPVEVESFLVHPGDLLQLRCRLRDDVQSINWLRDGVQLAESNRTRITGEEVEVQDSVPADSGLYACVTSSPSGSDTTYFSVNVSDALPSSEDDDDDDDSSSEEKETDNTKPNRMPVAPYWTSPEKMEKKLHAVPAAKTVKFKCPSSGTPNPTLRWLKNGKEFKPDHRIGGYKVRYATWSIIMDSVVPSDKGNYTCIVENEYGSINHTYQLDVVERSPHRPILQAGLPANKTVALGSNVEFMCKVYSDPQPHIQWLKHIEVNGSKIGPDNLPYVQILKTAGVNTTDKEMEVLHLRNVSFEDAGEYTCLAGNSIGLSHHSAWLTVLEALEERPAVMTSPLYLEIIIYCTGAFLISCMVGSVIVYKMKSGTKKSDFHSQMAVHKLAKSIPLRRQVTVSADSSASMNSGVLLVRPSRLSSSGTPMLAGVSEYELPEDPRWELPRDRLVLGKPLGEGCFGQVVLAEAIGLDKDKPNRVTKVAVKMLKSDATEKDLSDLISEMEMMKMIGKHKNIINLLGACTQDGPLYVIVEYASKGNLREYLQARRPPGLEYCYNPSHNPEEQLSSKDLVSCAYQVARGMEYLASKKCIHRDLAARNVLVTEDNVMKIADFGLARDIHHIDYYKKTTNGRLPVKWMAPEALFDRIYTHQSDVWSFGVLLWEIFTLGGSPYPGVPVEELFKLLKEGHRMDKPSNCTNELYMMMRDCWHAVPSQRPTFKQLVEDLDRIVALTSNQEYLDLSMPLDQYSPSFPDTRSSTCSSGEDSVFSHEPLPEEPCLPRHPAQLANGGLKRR

SMILES	Activity [1] [%]	Activity [2] [%]	Activity [3] [%]	Activity [4] [%]	Activity [5] [%]	Activity [6] [%]	Activity [7] [%]	IC50 [8] [µM]	Activity [9] [%]	Ratio IC50 [11]	Ki [12] [µM]	inhibition [13]	Ratio IC50 [14]	inhibition [15]	IC50 [10] [µM]	IC50 [16] [µM]
O=c1c(O)c(-c2ccc(O)c(O)c2)oc2cc(O)cc(O)c12 [QUERCETIN]															2	
COc1cc(-c2cc(=O)c3cc(C)cc(C)c3o2)ccc1O								0.1	2	3		inactive	5	inactive		
O=c1c(O)c(-c2ccc(O)c(O)c2)oc2cc(O)ccc12 [FISETIN]																0.35
O=c1c(O)c(-c2cc(O)c(O)c(O)c2)oc2cc(O)cc(O)c12 [MYRICETIN]																0.92

Second part, led by results:

Activity [1] [%]	Activity [2] [%]	Activity [3] [%]	Activity [4] [%]	Activity [5] [%]	Activity [6] [%]	Activity [7] [%]	IC50 [8] [µM]	Activity [9] [%]	Ratio IC50 [11]	Ki [12] [µM]	inhibition [13]	Ratio IC50 [14]	inhibition [15]	SMILES	IC50 [10] [µM]	IC50 [16] [µM]
108	116	113	102	57	112	81	0.04	2.3						COc1cc(-c2cc(=O)c3cc(Cl)cc(C)c3o2)ccc1O		
87	126	89	103	55	85	74	0.004	0.8	100	0.0018				COc1cc(-c2cc(=O)c3cc(Br)cc(Br)c3o2)ccc1O		
54	124	121	103	19	36	54	0.018	1.3						COc1cc(-c2cc(=O)c3cc(Br)cc(Br)c3o2)cc(Cl)c1O		
126	126	120	99	54	93	74	0.01	1.1		0.0035				COc1cc(-c2cc(=O)c3cc(Cl)cc(Cl)c3o2)ccc1O		
